Tests used:
Test in all cases: Greenhouse post-emergence weed control, percent injury vs untreated control
Type in all cases: in vivo
Settings in all cases: 19 DAT
[1] = system: Amaranthus Palmeri (AMAPA)
[2] = system: Amaranthus tuberculatus (AMATU)
[3] = system: Ambrosia artemisiifolia (AMBEL)
Hordeum vulgare (HORVS) = system: Hordeum vulgare (HORVS)
[4] = system: Echinochloa crus-galli (ECHCG)
Galium aparine (GALAP) = system: Galium aparine (GALAP)

Compound: C#CCN(C)c1c(C#N)cnn1-c1nn2c(c1Cl)CCCC2 [Pyraclonil]
- Solo pyraclonil (3.125 g ai/ha) % activity ([1]; 3.125 g ai/ha): 30%
- Solo Pyraclonil (6.25 g ai/ha) % activity ([1]; 6.25 g ai/ha): 20%
- Solo pyraclonil (1.5625 g ai/ha) % activity ([2]; 1.5625 g ai/ha): 20%
- Solo Pyraclonil (6.25 g ai/ha) % activity ([2]; 6.25 g ai/ha): 35%
- Solo pyraclonil (1.5625 g ai/ha) % activity ([3]; 1.5625 g ai/ha): 25%
- Solo Pyraclonil (6.25 g ai/ha) % activity ([3]; 6.25 g ai/ha): 65%
- Solo pyraclonil (3.125 g ai/ha) % activity (Hordeum vulgare (HORVS); 3.125 g ai/ha): 0%

Compound: CP(=O)(O)CCC(N)C(=O)O (racemic) [Glufosinate, (2RS)-2-amino-4-[hydroxy(methyl)phosphinoyl]butyric acid]
- inhibition at 50 g/ha ([4]; Echinochloa crus-galli, 456 h, 50 g ai/ha, read-out: Solo Glufosinate (50 g ai/ha) % activity): 10%
- inhibition at 100 g/ha ([4]; Echinochloa crus-galli, 456 h, 100 g ai/ha, read-out: Solo Glufosinate (100 g ai/ha) % activity): 25%
- inhibition at 200 g/ha ([4]; Echinochloa crus-galli, 456 h, 200 g ai/ha, read-out: Solo Glufosinate (200 g ai/ha) % activity): 70%
- inhibition at 50 g/ha ([1]; Amaranthus palmeri, 456 h, 50 g ai/ha, read-out: Solo Glufosinate (50 g ai/ha) % activity): 35%
- inhibition at 100 g/ha ([1]; Amaranthus palmeri, 456 h, 100 g ai/ha, read-out: Solo Glufosinate (100 g ai/ha) % activity): 30%
- inhibition at 200 g/ha ([1]; Amaranthus palmeri, 456 h, 200 g ai/ha, read-out: Solo Glufosinate (200 g ai/ha) % activity): 80%
- inhibition at 50 g/ha ([2]; Amaranthus tuberculatus, 456 h, 50 g ai/ha, read-out: Solo Glufosinate (50 g ai/ha) % activity): 40%
- inhibition at 100 g/ha ([2]; Amaranthus tuberculatus, 456 h, 100 g ai/ha, read-out: Solo Glufosinate (100 g ai/ha) % activity): 70%
- inhibition at 200 g/ha ([2]; Amaranthus tuberculatus, 456 h, 200 g ai/ha, read-out: Solo Glufosinate (200 g ai/ha) % activity): 90%
- inhibition at 50 g/ha (Galium aparine (GALAP); Galium aparine, 456 h, 50 g ai/ha, read-out: Solo Glufosinate (50 g ai/ha) % activity): 30%
- inhibition at 50 g/ha ([3]; Ambrosia artemisiifolia, 456 h, 50 g ai/ha, read-out: Solo Glufosinate (50 g ai/ha) % activity): 40%
- inhibition at 100 g/ha (Hordeum vulgare (HORVS); Hordeum vulgare, 456 h, 100 g ai/ha, read-out: Solo Glufosinate (100 g ai/ha) % activity): 0%
- inhibition at 200 g/ha (Hordeum vulgare (HORVS); Hordeum vulgare, 456 h, 200 g ai/ha, read-out: Solo Glufosinate (200 g ai/ha) % activity): 30%

Compound: N#Cc1cnn(-c2nn3c(c2Cl)CCCC3)c1NCC1CC1 [cyclopyranyl, cyclopyranil]
- Solo cyclopyranyl (6.25 g ai/ha) % activity ([4]; 6.25 g ai/ha): 25%
- Solo cyclopyranyl (1.5625 g ai/ha) % activity ([1]; 1.5625 g ai/ha): 10%
- Solo cyclopyranyl (3.125 g ai/ha) % activity ([1]; 3.125 g ai/ha): 10%
- Solo cyclopyranyl (6.25 g ai/ha) % activity ([1]; 6.25 g ai/ha): 25%
- Solo cyclopyranyl (6.25 g ai/ha) % activity ([2]; 6.25 g ai/ha): 65%
- Solo cyclopyranyl (6.25 g ai/ha) % activity (Galium aparine (GALAP); 6.25 g ai/ha): 65%
- Solo cyclopyranyl (6.25 g ai/ha) % activity (Hordeum vulgare (HORVS); 6.25 g ai/ha): 15%

Compound: Oxadiargyl
- Solo Oxadiargyl (3.125 g ai/ha) % activity ([4]; 3.125 g ai/ha): 15%
- Solo Oxadiargyl (3.125 g ai/ha) % activity ([1]; 3.125 g ai/ha): 40%
- Solo Oxadiargyl (6.25 g ai/ha) % activity ([1]; 6.25 g ai/ha): 30%
- Solo Oxadiargyl (6.25 g ai/ha) % activity ([2]; 6.25 g ai/ha): 40%
- Solo Oxadiargyl (3.125 g ai/ha) % activity ([3]; 3.125 g ai/ha): 20%
- Solo Oxadiargyl (6.25 g ai/ha) % activity ([3]; 6.25 g ai/ha): 10%
